Reference: patent US7459552B2, “Method for producing cyclic diamine derivative or salt thereof” (Kowa Co., Ltd., priority 2003, dated 2008)

## CSc1cc(C)nc(SC)c1NC(=O)CN1CCN(CCSc2nc3cc(C(F)(F)F)ccc3o2)CC1 [Example 4, 2-[4-[2-(5-trifluoromethylbenzoxazol-2-ylthio)ethyl]piperazin-1-yl]-N-[2,4-bis(methylthio)-6-methylpyridin-3-yl]acetamide]
  melting point: 103 to 104 °C

## Cc1cc(OCC(F)(F)F)c(NC(=O)CN2CCN(CCSc3nc4cc(F)c(F)cc4[nH]3)CC2)c(OCC(F)(F)F)n1 [Example 5, 2-[4-[2-(5,6-difluorobenzimidazol-2-ylthio)ethyl]piperazin-1-yl]-N-[2,4-bis(2,2,2-trifluoroethoxy)-6-methylpyridin-3-yl]acetamide]
  melting point: 191 to 192 °C

## Cc1cc(OCC(F)(F)F)c(NC(=O)CN2CCN(CCSc3nc4ccccc4o3)CC2)c(OCC(F)(F)F)n1 [Example 7, 2-[4-[2-(benzoxazol-2-ylthio)ethyl]piperazin-1-yl]-N-[2,4-bis(2,2,2-trifluoroethoxy)-6-methylpyridin-3-yl]acetamide]
  melting point: 141 to 142 °C

## Cc1cc(C(F)(F)F)c(NC(=O)CN2CCN(CCSc3nc4ccccc4s3)CC2)c(C)n1 [Example 8, 2-[4-[2-(benzothiazol-2-ylthio)ethyl]piperazin-1-yl]-N-[2,6-dimethyl-4-trifluoromethyl-pyridin-3-yl]acetamide]
  melting point: 107 to 108 °C
